The subject of this test is panel of taste experts. Put plainly: taste evaluation of purified compounds in a water base. Type of test: in vivo. To be noted: 500 ppm in a water base. How it is done:
A composition comprising the at least one glucosylated terpene glucosides was generated according to the methods described in the preceding examples. The compounds were dissolved in water (alternatively, the compounds could also be combined into a 2% (w/w) or 4% (w/w) sucrose solution or 7% (w/w) inverted sugar plus 0.15% citric acid (w/w) solution), wherein the final concentration of the composition in solution may range from 1 to 1000 ppm. A panel of taste experts evaluated the solutions.

Molecules are shown by their SMILES.

As to `C=C1C[C@@]23CC[C@H]4[C@@](C)(CCC[C@@]4(C)C(=O)O[C@@H]4OC(CO[C@H]5OC(CO)[C@@H](O)C(O)C5O)[C@@H](O)C(O)C4O)[C@@H]2CC[C@]1(O[C@@H]1OC(CO)[C@@H](O)C(O[C@@H]2OC(CO)[C@@H](O)C(O)C2O)C1O[C@@H]1OC(CO)[C@@H](O)C(O)C1O)C3` (stereo partly drawn) [compound of formula III, Mono α-1,6-glucosylated Rebaudioside A], the “taste perceived” value is given as “strong sweet taste” and the “times sweeter than sucrose” value is recorded as 200-300 times.
Turning to `C=C1C[C@@]23CC[C@H]4[C@@](C)(CCC[C@@]4(C)C(=O)O[C@@H]4OC(CO)[C@@H](O)C(O)C4O)[C@@H]2CC[C@]1(O[C@@H]1OC(CO)[C@@H](O)C(O[C@@H]2OC(CO[C@H]4OC(CO)[C@@H](O)C(O)C4O)[C@@H](O)C(O)C2O)C1O[C@@H]1OC(CO)[C@@H](O)C(O)C1O)C3` (stereo partly shown) [compound of formula VIII], the “taste perceived” value is reported as “strong sweet taste” and the “times sweeter than sucrose” value is reported as 200-300 times.
